This is an account of results in patent US11053218B2, “3-(1-oxoisoindolin-2-yl)piperidine-2,6-dione derivatives and uses thereof” (Novartis AG, priority 2017, dated 2021).

A value given as a limit tells only on which side of the number the result lay.

Assay type in all cases: cell-based
For experiment [1], the target named is IKZF1 (Homo sapiens, UniProt Q13422+Q96SW2). Description: Prolabel quantification of IKZF1 protein levels in 293GT cells. As to conditions: Prolabel assay, read-out: IKZF1 EC50.
IKZF1, sequence (Q13422 whole entry): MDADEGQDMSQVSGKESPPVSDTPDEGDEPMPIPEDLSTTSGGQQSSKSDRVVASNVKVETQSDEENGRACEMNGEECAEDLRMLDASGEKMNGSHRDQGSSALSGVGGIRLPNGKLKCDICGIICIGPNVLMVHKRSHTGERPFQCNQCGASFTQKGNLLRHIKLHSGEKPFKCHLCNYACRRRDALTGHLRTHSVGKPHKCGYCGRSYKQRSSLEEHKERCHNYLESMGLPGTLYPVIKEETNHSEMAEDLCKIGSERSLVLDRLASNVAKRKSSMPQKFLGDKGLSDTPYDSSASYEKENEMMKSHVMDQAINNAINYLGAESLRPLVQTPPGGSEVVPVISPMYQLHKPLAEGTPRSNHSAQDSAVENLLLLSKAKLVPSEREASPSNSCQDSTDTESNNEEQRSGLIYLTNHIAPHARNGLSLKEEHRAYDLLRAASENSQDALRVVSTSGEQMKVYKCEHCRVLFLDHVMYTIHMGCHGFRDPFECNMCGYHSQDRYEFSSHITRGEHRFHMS
IKZF1, sequence (Q96SW2 whole entry): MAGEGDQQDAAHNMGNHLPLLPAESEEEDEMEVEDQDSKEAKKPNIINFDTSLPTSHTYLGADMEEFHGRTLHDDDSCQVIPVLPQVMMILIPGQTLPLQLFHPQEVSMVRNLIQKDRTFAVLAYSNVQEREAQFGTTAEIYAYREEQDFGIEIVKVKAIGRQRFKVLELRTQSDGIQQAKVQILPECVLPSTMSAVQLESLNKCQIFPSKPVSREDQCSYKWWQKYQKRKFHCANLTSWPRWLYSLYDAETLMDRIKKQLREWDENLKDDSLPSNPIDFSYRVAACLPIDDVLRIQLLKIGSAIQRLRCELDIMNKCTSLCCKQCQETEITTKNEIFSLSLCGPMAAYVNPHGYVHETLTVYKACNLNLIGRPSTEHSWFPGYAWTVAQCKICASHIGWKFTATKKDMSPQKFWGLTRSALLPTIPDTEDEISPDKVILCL
IKZF1, sequence (Q16531 whole entry partner): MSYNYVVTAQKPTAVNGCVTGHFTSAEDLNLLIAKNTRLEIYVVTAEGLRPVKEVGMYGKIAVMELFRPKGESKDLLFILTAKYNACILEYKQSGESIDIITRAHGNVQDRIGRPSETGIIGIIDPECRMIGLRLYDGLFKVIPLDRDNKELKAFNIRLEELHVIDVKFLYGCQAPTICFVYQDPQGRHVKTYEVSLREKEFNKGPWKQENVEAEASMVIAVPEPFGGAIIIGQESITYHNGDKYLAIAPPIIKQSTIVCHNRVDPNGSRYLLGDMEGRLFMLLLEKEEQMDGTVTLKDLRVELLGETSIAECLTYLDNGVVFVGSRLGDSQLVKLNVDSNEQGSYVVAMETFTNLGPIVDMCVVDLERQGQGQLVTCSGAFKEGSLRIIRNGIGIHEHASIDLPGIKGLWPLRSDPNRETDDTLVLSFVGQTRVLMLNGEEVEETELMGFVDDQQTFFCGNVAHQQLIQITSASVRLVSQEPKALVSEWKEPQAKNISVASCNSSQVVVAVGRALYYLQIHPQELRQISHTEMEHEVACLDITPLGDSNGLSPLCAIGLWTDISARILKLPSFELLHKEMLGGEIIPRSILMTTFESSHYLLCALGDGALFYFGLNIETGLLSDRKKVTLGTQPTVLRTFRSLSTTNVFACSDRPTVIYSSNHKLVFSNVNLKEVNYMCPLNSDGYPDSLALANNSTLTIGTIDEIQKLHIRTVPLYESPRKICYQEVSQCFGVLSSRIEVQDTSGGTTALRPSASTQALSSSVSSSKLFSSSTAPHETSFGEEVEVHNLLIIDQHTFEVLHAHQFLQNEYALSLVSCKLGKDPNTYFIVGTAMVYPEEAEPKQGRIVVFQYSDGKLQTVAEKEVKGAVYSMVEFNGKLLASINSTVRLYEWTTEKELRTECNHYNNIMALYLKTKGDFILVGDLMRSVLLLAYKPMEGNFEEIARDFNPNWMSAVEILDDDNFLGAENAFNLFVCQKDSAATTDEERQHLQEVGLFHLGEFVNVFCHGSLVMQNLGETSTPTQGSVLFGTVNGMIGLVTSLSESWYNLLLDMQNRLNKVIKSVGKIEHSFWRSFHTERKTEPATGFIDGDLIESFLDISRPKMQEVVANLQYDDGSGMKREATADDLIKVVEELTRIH
In experiment [2] the target is GSPT1 (Homo sapiens, UniProt P15170+Q96SW2). The experiment is described as follows: Prolabel quantification of GSPT1 protein levels in 293GT cells. As to conditions: Prolabel assay, read-out: GSPT1 EC50. As for the experimental part:
The Prolabel system from DiscoverX was used to develop high-throughput and quantitative assays to measure changes in IKZF1, IKZF2 and GSPT1 protein levels in response to compounds. The prolabel tag was derived from the alpha fragment of beta galactosidase and has the following protein sequence: mssnslavvlqrrdwenpgvtqlnrlaahppfaswrnseeartdrpsqqlrslnge. The complementary fragment of beta-galactosidase (from DiscoverX), is added to the prolabel tag to form an active beta galactosidase enzyme whose activity can be precisely measured. In this way, the levels of a fusion protein with the prolabel tag can be quantified in cell lysates.
Lentiviral vectors, based on the Invitrogen pLenti6.2/V5 DEST backbone, were constructed that placed the prolabel tag upstream of IKZF1, IKZF2 or GSPT1 and expressed the fusion protein from a CMV promoter.
To ensure moderate and consistent expression of the prolabel fusion proteins across all cells in the population, stable cell lines were constructed from cells expressing a single copy of the construct. Lentivirus packaged with the constructs was made using the Virapower kit from Invitrogen.
The levels of prolabel tagged fusion proteins in compound treated cell lines were measured as follows:
Day 1, Cells were diluted to 1.0×10^6 cells/ml in normal growth medium. 17.5 μL of cells were plated in each well of a solid white 384 well plate. Plates were incubated overnight in a 37° C. tissue culture incubator.
Day 2, Serial dilutions of compounds were made in 384 well plates from 10 mM stocks. 15 μL of DMSO was added to each well of a 384 well plate. In the first column 15 μL of stock compound was added. The solution was mixed and 15 μL was transferred to the next column. This was repeated until 20 two-fold dilutions were prepared. 2.5 μL of diluted compounds were transferred into 60 μL of cell culture medium in another 384 well plate, and mixed well. 2.5 μL of this mixture was added to the plated cells. The final DMSO concentration was 0.5% and the highest concentration of compound was 50 μM. Plates were incubated overnight (e.g., about 14 h, 18 h, or 24 h) in a 37° C. tissue culture incubator.
Day 3, Plates were removed from the incubator and allowed to equilibrate at rt for 30 minutes. Prolabel substrate (DiscoverX PathHunter Prolabel Detection Kit, User manual: 93-0180) was added as described by the manufacturers protocols. Plates were incubated at rt for three hours and luminescence was read using an Envision reader (Perkin Elmer) Data was analyzed and visualized using the Spotfire software package.

Experiment [3] deals with IKZF2 (Homo sapiens, UniProt Q96SW2+Q9UKS7). Description: Prolabel quantification of IKZF2 protein levels in 293GT cells. As to conditions: for inhibition at 10 µM: 24 h, read-out: IKZF2 % protein reduction at 10 μM, 24 h; for inhibition at 10 µM / DC50: 293GT cells; for DC50: Prolabel assay, read-out: IKZF2 EC50; for IKZF2 protein levels as compared to the control (DMSO): Prolabel assay in HEK293GT cells, bar graph.
IKZF2, sequence (Q9UKS7 whole entry): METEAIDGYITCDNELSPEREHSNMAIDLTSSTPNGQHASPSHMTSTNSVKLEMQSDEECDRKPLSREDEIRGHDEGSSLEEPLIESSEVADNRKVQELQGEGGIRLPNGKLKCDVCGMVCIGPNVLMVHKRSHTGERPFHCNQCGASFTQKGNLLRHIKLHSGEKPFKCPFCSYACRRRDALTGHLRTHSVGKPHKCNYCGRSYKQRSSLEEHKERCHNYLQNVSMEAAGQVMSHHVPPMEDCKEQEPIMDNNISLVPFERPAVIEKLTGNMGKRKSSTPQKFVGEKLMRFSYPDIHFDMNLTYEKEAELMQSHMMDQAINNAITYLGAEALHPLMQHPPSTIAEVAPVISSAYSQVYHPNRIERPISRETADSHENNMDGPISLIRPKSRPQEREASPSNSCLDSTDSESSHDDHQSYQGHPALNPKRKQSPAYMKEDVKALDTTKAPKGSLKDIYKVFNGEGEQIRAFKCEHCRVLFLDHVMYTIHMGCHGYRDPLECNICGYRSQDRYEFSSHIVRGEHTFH
IKZF2, sequence (Q96SW2 whole entry): as the sequence (Q96SW2 whole entry) above
IKZF2, sequence (Q16531 whole entry partner): as the sequence (Q16531 whole entry partner) above

GSPT1, sequence (P15170 whole entry, the tested form may be a part): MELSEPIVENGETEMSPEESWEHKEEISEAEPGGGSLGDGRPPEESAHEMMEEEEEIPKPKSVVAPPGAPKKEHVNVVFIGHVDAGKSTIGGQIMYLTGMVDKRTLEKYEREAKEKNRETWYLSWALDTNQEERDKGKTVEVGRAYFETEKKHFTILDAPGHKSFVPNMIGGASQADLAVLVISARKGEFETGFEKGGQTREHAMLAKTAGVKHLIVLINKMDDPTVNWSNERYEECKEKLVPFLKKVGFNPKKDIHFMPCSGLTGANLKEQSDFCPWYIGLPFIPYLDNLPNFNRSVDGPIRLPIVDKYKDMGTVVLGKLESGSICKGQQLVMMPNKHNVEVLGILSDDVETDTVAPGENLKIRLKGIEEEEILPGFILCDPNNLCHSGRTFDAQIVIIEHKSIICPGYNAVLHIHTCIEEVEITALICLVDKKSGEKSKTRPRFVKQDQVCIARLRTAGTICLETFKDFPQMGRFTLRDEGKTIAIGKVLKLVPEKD
GSPT1, sequence (Q96SW2 whole entry, the tested form may be a part): as the sequence (Q96SW2 whole entry) above
GSPT1, sequence (Q16531 whole entry partner, the tested form may be a part): as the sequence (Q16531 whole entry partner) above

As to `Cn1nc(CN2CCC(c3ccc4c(c3)CN(C3CCC(=O)NC3=O)C4=O)CC2)c2ccccc21` (stereo not drawn) [Compound I-203, 3-(5-(1-((1-methyl-1H-indazol-3-yl)methyl)piperidin-4-yl)-1-oxoisoindolin-2-yl)piperidine-2,6-dione], the DC50 in experiment [1] is > 30 µM; in experiment [2] it was > 30 µM; in experiment [3], 16 nM. The inhibition at 10 µM in experiment [3] turned out to be 50%.
As for `O=C1CCC(N2Cc3cc(C4CCN(Cc5cc(F)c(O)c(F)c5)CC4)ccc3C2=O)C(=O)N1` (stereo not drawn) [Compound I-156, 3-(5-(1-(3,5-difluoro-4-hydroxybenzyl)piperidin-4-yl)-1-oxoisoindolin-2-yl)piperidine-2,6-dione], the DC50 in experiment [1] is > 50 µM; in experiment [2], > 50 µM; in experiment [3], 22 nM. The inhibition at 10 µM in experiment [3] was determined as 70%.
In the case of `O=C1CCC(N2Cc3cc(C4CCN(Cc5ccc(C6CCCC6)cc5)CC4)ccc3C2=O)C(=O)N1` (stereo not drawn) [Compound I-110, 3-(5-(1-(4-cyclopentylbenzyl)piperidin-4-yl)-1-oxoisoindolin-2-yl)piperidine-2,6-dione], the DC50 in experiment [1] is > 30 µM; in experiment [2], > 30 µM; in experiment [3], 74 nM. Moreover, the inhibition at 10 µM in experiment [3] stood at 75%.
On to `CC(c1ccccc1)N1CCC(c2ccc3c(c2)CN(C2CCC(=O)NC2=O)C3=O)CC1` (racemic) [Compound I-62, 3-(1-oxo-5-(1-(1-phenylethyl)piperidin-4-yl)isoindolin-2-yl)piperidine-2,6-dione], for which the DC50 is > 50 µM in experiment [1], > 30 µM in experiment [2] and 7 nM in experiment [3]. In experiment [3], the inhibition at 10 µM worked out at 75%.
For `O=C1CCC(N2Cc3cc(C4CCN(Cc5cnc(N6CCCC6)nc5)CC4)ccc3C2=O)C(=O)N1` (stereo not drawn) [Compound I-142, 3-(1-oxo-5-(1-((2-(pyrrolidin-1-yl)pyrimidin-5-yl)methyl)piperidin-4-yl)isoindolin-2-yl)piperidine-2,6-dione], in that order: > 30 µM, > 30 µM, 16 nM and 75%.
On the same counts, the results for `O=C1CCC(N2Cc3cc(C4CCN(Cc5cn(C6CCC6)nn5)CC4)ccc3C2=O)C(=O)N1` (stereo not drawn) [Compound I-134, 3-(5-(1-((1-cyclobutyl-1H-1,2,3-triazol-4-yl)methyl)piperidin-4-yl)-1-oxoisoindolin-2-yl)piperidine-2,6-dione] are > 30 µM, > 30 µM, 34 nM and 80%.
For `O=C1CCC(N2Cc3cc(C4CCN(Cc5ccc(Cl)cc5)CC4)ccc3C2=O)C(=O)N1` (stereo not drawn) [Compound I-97, 3-(5-(1-(4-chlorobenzyl)piperidin-4-yl)-1-oxoisoindolin-2-yl)piperidine-2,6-dione], in that order: > 50 µM, > 50 µM, 27 nM and 55%.
As for `Cc1ccc2sc(-c3ccc(CN4CCC(c5ccc6c(c5)CN(C5CCC(=O)NC5=O)C6=O)CC4)cc3)nc2c1` (stereo not drawn) [Compound I-225, 3-(5-(1-(4-(5-methylbenzo[d]thiazo1-2-yl)benzyl)piperidin-4-yl)-1-oxoisoindolin-2-yl)piperidine-2,6-dione], the DC50 in experiment [1] is > 30 µM; in experiment [2], > 30 µM; in experiment [3] it was 120 nM. In addition, the inhibition at 10 µM in experiment [3] is 65%.
Consider `CN(C)S(=O)(=O)c1cccc(CN2CCC(c3ccc4c(c3)CN(C3CCC(=O)NC3=O)C4=O)CC2)c1` (stereo not drawn) [Compound I-216, 3-((4-(2-(2,6-dioxopiperidin-3-yl)-1-oxoisoindolin-5-yl)piperidin-1-yl)methyl)-N,N-dimethylbenzenesulfonamide], for which the figures for the DC50 in experiment [1], in experiment [2] and in experiment [3] were 0.22 µM, > 30 µM and 10 nM, respectively. Also, the inhibition at 10 µM in experiment [3] stood at 80%.
On the same counts, the results for `Cc1nc2sccn2c1CN1CCC(c2ccc3c(c2)CN(C2CCC(=O)NC2=O)C3=O)CC1` (stereo not drawn) [Compound I-125, 3-(5-(1-((6-methylimidazo[2,1-b]thiazol-5-yl)methyl)piperidin-4-yl)-1-oxoisoindolin-2-yl)piperidine-2,6-dione] are > 30 µM, > 30 µM, 240 nM and 60%.
For `CN(C)S(=O)(=O)c1ccc(CN2CCC(c3ccc4c(c3)CN(C3CCC(=O)NC3=O)C4=O)CC2)cc1` (stereo not drawn) [Compound I-237, 4-((4-(2-(2,6-dioxopiperidin-3-yl)-1-oxoisoindolin-5-yl)piperidin-1-yl)methyl)-N,N-dimethylbenzenesulfonamide], in that order: > 30 µM, > 30 µM, 20 nM and 70%.
On the same counts, the results for `O=C1CCC(N2Cc3cc(C4CCN(Cc5cccn6nccc56)CC4)ccc3C2=O)C(=O)N1` (stereo not drawn) [Compound I-128, 3-(1-oxo-5-(1-(pyrazolo[1,5-a]pyridin-4-ylmethyl)piperidin-4-yl)isoindolin-2-yl)piperidine-2,6-dione] are > 30 µM, > 30 µM, 12 nM and 75%.
`CN1CCN(Cc2cc(CN3CCC(c4ccc5c(c4)CN(C4CCC(=O)NC4=O)C5=O)CC3)ccc2O)CC1` (stereo not drawn) [Compound I-205, 3-(5-(1-(4-hydroxy-3-((4-methylpiperazin-1-yl)methyl)benzyl)piperidin-4-yl)-1-oxoisoindolin-2-yl)piperidine-2,6-dione]: the DC50 in experiment [1] is > 30 µM; in experiment [2] it was > 30 µM; in experiment [3], 50 nM. In experiment [3], the inhibition at 10 µM came out at 70%.
In the case of `O=C1CCC(N2Cc3cc(C4CCN(Cc5ccc6nccnc6c5)CC4)ccc3C2=O)C(=O)N1` (stereo not drawn) [Compound I-239, 3-(1-oxo-5-(1-(quinoxalin-6-ylmethyl)piperidin-4-yl)isoindolin-2-yl)piperidine-2,6-dione], the results for the DC50 in experiment [1], in experiment [2] and in experiment [3] were > 30 µM, > 30 µM and 7 nM, respectively. Moreover, in experiment [3], the inhibition at 10 µM amounted to 70%.
For the compound `Cc1cc(C)cc(CN2CCC(c3ccc4c(c3)CN(C3CCC(=O)NC3=O)C4=O)CC2)c1` (stereo not drawn) [Compound I-159, 3-(5-(1-(3,5-dimethylbenzyl)piperidin-4-yl)-1-oxoisoindolin-2-yl)piperidine-2,6-dione], the DC50 in experiment [1] was > 50 µM; in experiment [2], > 50 µM; in experiment [3] it was 19 nM. Besides, in experiment [3], the inhibition at 10 µM amounted to 55%.
In the case of `COc1ncc(CN2CCC(c3ccc4c(c3)CN(C3CCC(=O)NC3=O)C4=O)CC2)cn1` (stereo not drawn) [Compound I-68, 3-(5-(1-((2-methoxypyrimidin-5-yl)methyl)piperidin-4-yl)-1-oxoisoindolin-2-yl)piperidine-2,6-dione], the figures for the DC50 in experiment [1], in experiment [2] and in experiment [3] were > 50 µM, > 30 µM and 3 nM, respectively. In addition, the inhibition at 10 µM in experiment [3] was determined as 50%. For the same compound, the “IKZF2 protein levels as compared to the control (DMSO)” value in experiment [3] is “decreased”.
For `O=C1CCC(N2Cc3cc(C4CCN(Cc5ccc6ccc(F)cc6n5)CC4)ccc3C2=O)C(=O)N1` (stereo not drawn) [Compound I-232, 3-(5-(1-((7-fluoroquinolin-2-yl)methyl)piperidin-4-yl)-1-oxoisoindolin-2-yl)piperidine-2,6-dione], the results for the DC50 in experiment [1], in experiment [2] and in experiment [3] were > 30 µM, > 30 µM and 18 nM, respectively. In experiment [3], the inhibition at 10 µM stood at 70%.
With `O=C1CCC(N2Cc3cc(C4CCN(Cc5nc(-c6ccccc6)c[nH]5)CC4)ccc3C2=O)C(=O)N1` (stereo not drawn) [Compound I-154, 3-(1-oxo-5-(1-((4-phenyl-1H-imidazol-2-yl)methyl)piperidin-4-yl)isoindolin-2-yl)piperidine-2,6-dione], the DC50 in experiment [1] was 0.043 µM; in experiment [2], > 30 µM; in experiment [3] it was 8 nM. Further, in experiment [3], the inhibition at 10 µM was determined as 85%.
For `O=C1CCC(N2Cc3cc(C4CCN(Cc5cccc6[nH]ncc56)CC4)ccc3C2=O)C(=O)N1` (stereo not drawn) [Compound I-43, 3-(5-(1-((1H-indazol-4-yl)methyl)piperidin-4-yl)-1-oxoisoindolin-2-yl)piperidine-2,6-dione], the DC50 in experiment [1] was > 30 µM; in experiment [2], > 30 µM; in experiment [3] it was 12 nM. Also, the inhibition at 10 µM in experiment [3] turned out to be 80%. In addition, in experiment [3], the “IKZF2 protein levels as compared to the control (DMSO)” value is listed as “decreased”.
